Experimental findings from patent publication US10575515B2, “Methods and compositions for preserving tissues and organs” (The General Hospital Corporation, priority 2010, dated 2020) are described below.

Some results are limits rather than exact numbers.

Data set [1] has as its system C3A cells (human liver carcinoma line). The experiment in a line: Cryopreservation of C3A cells with troglitazone, post-thaw viability by trypan blue exclusion. It is filed as cell-based. The note with it: 25 μM troglitazone 30 mins, cryopreservation in liquid nitrogen, vs without. The source says: Inventors performed a molecular docking study to identify ligands of PPAR-γ, a transcription factor that is known to have the ability to modulate metabolic rate (see FIG. 34), where inventors identified Troglitazone as a candidate. Inventors also performed preliminary studies to test the effect of supplementation in preservation efficacy. In these initial studies inventors used C3A cells (human liver carcinoma line) and cryopreservation rather than supercooling, due to availability of data to be used as controls. Inventors observed that Troglitazone increased post-thaw viability ˜2.5 fold. We are currently testing Troglitazone and other compounds with primary rat hepatocytes both in cryopreservation and supercooled storage. Nearly confluent C3A cell flasks were trypsinized in PBS solution; cells were sedimented by centrifugation (10 min at […] at 4 degree C.). The medium was replaced by adding 2 mL of HTS and the cell pallets were re-suspended in the HTS by gentle pipetting. The cell samples in 1 mL aliquots were put in 1.5 mL cryovials. The samples were frozen in a controlled rate freezer using a freeze controlled Cryobath (Cryologic, Victoria, Australia) with a CL-8800 temperature controller (Cryologic). A cooling rate of 1 degree C./min was used. The samples were seeded with ice at −4 degrees C. by using a cotton bulb dipped in liquid nitrogen. […]

Data set [2] deals with hepatocytes. In words: SZNF storage of cells at −4° C. with metabolic supplement, cell viability. It is filed as cell-based. Conditions: tandem SZNF with metabolic suppressant. As to the method: Inventors are testing a variety of metabolic supplements to enhance viability during preservation. One of the most successful additives inventors tested is magnolol, a biphenolic compound with multiple properties (including tumor suppression and antioxidative capabilities). […] Note that this study was performed early on where stable preservation temperature in plate culture models was −4° C., testing at −10° C. is currently in progress.
The cells were preserved on collagen coated 6 well plates and cultured at 37° C. for one day prior to preservation. Cells were then preserved 48 hours at −4° C.; viability was determined 1 hr after rewarming

Data set [3] deals with hepatocytes. In words: Hepatocyte viability after 60 min incubation with isotonic mixtures of sugars and DMSO. It counts as cell-based. The protocol:
Significant loading of 3OMG can be achieved within 20 minutes (FIG. 37a). The hepatocyte viability when incubated with 3OMG is statistically equal to other saccharides that are not cryopreservative for mammalian cells (FIG. 37b). By comparison, incubation with a common cryopreservative dimethyl sulfoxide (DMSO) under similar conditions reduces viability to 12%.
Hepatocytes can be loaded with 3OMG within 20 minutes in vitro. FIG. 37A illustrates that the kinetics of 3OMG uptake show significant loading of cells with 3OMG within 20 minutes, and even more rapid release with washing; inventors can currently perfuse the livers in stable condition for more than 6 hrs, which is more than sufficient for loading with 3OMG.

Data set [4] deals with hepatocytes. The experiment in a line: Cryopreservation of 3OMG-loaded hepatocytes, post-thaw viability by trypan blue exclusion. It counts as cell-based. The note with it: Hepatocyte; 200 mM 3OMG, storage in liquid nitrogen up to one week; read-out: post-thaw cell viability (percentage of unfrozen control). The protocol: Hepatocytes were incubated with 200 mM 3OMG for 60 min and then washed with sugar-free medium for 30 min. Controls were incubated in glucose-free DMEM (no-sugar control), sucrose (non-permeable/non-intracellular control), and D-glucose (permeable but metabolizable control). Following incubation, cells were pelleted by centrifugation for 5 min, supernatant decanted, and resuspended in cold HypoThermosol solution (HTS) with 200 mM 3OMG, 2DG, sucrose, or D-glucose (1×10^6 cell/mL). Cell suspensions were transferred to 1 mL cryogenic vials and cooled at −1° C./min to −6° C., seeded to induce the formation of extracellular ice by application of cold forceps to the exterior of the cryovials, and then cooled at −1° C./min to −80° C., and finally transferred to liquid nitrogen (−196° C.) for storage lasting 1 to 7 days. Following storage, samples were rapidly thawed in a 37° C. water bath for 2 min with gentle agitation. The samples were then diluted 1:10 in D-glucose-free DMEM and incubated for 10 min at 37° C. to wash out the loaded sugar compounds. Samples were then centrifuged, supernatant decanted, and resuspended in culture medium. The viability of the cryopreserved cells was determined immediately after thawing using a trypan blue exclusion assay and expressed as percent of unfrozen control. […]

The test system of data set [5] is hepatocytes. The experiment in a line: Long-term hepatic functions of cryopreserved hepatocytes in collagen sandwich culture. The note with it: albumin, urea, cytochrome P450; 3OMG loaded and frozen. It is filed as cell-based. The protocol: Methods: Cells were cultured in a collagen sandwich for […], and media collected daily were analyzed for albumin and urea. All values were normalized by viable cell number (DNA content) and shown as o the means±se (n>9). Urea secretion and resorufin formation were statistically not different (p=0.51 and p=0.3 respectively). Albumin production on days 7-13 were statistically different at p=0.014 (FIG. 39).

The test system of a further data set is rat livers. The experiment in a line: Subzero nonfreezing storage of whole rat livers at −5° C., histology (H&E). The note with it: loaded with 3OMG, 24 hours at −5° C., then NELP with red blood cells.
Data set [6] is described as follows: Supercooling in cryovials at subzero temperatures in selected media formulations. It is filed as physicochemical. As to the method: We tested a variety of preservation media and additives for achieving SZNF storage overnight in a controlled rate freezer. We were able to reach −10° C. without any freezing in supplemented University of Wisconsin (UW) and Hypothermosol (HTS) by proper tuning of the rate of temperature reduction. […] FIG. 48 depicts the temperature profile for successful subzero cooling at −10° C.

As for `Cc1c(C)c2c(c(C)c1O)CCC(C)(COc1ccc(CC3SC(=O)NC3=O)cc1)O2` (stereo not drawn) [Troglitazone], in data set [1], the “increase of post-thaw viability” value was roughly 2.5 fold.

For the molecule `C=CCc1ccc(O)c(-c2cc(CC=C)ccc2O)c1` [magnolol, 5,5′-Diallyl-2,2′-biphenyldiol], the “preservation of viability of cells compared to SZNF in the absence of metabolic suppressant agent” value in the data set with hepatocytes [2] was “at least 60%”.

In the case of `CO[C@@H]([C@H](O)[C@H](O)CO)[C@@H](O)C=O` [3OMG, 3-O-methyl-glucose], in the data set with hepatocytes [3] (concentration range studied, 60 min incubation), the “toxicity for hepatocytes” value is “minimally toxic”. The viability at 200000 µM in the data set with hepatocytes [4] was greater than 50%. Moreover, in the data set with hepatocytes [5], the “long-term hepatic functions vs non-frozen hepatocytes” value is recorded as “similar”. Further, the “histology after storage and NELP perfusion” value in the data set with rat livers is reported as “perfect preservation of microstructure”. Besides, the “temperature reached without any freezing” value in data set [6] (overnight, controlled rate freezer) was −15 °C. For the same molecule, the “fraction of the time the protocol is stable” value in data set [6] (−15° C. in HTS) is “about 50%”.

For the molecule `C[S+](C)[O-]` [dimethyl sulfoxide (DMSO), dimethyl sulfoxide, reference compound], in the data set with hepatocytes [3] (incubation 60 min, isotonic mixture), the “hepatocyte viability after incubation” value is reported as 12%.

Usually viability stands for a read-out of living cells in per cent, often relative to untreated cells.
